{"source": "patent EP3492483A1", "about": "“COMPOUNDS AND METHODS FOR TREATING BACTERIAL INFECTIONS” (The Washington University, priority 2009, dated 2011)", "key": {"FimH [1]": {"target": "T1, FimH (Escherichia coli, UniProt P08191)"}, "FimH [2]": {"target": "T1, FimH", "settings": "previously reported, SPR; cited from earlier work"}, "[3]": {"assay": "Solubility (qualitative statements)", "settings": "relative to di-ester 15a"}, "UTI89 biofilm [4]": {"system": "UTI89 biofilm", "assay": "Biofilm formation inhibition assay (PVC, crystal violet)", "format": "cell-based, UPEC", "settings": "PVC, LB, room temperature; read-out: IC50 of mannoside on UTI89 biofilm formation"}, "UTI89 [5]": {"system": "UTI89", "assay": "Gentamicin protection assay of infected mouse bladders", "format": "in vivo, mice", "settings": "6 hpi, IP (5 mg/kg) pretreatment", "text": "Based on the extensive elucidation of the UPEC pathogenic cascade, critical nodes in pathogenesis that mannosides would target and thereby have powerful and potent therapeutic ramifications were identified. The first step in the UPEC pathway involves FimH-mediated colonization of the bladder epithelium via the recognition of mannose receptors. Bacterial invasion into superficial bladder umbrella cells can then ensue. […] To test this, a well-established gentamicin protection assay that allows the determination of the luminally bound fraction versus the intracellular fraction was utilized (Fig 10). […] This may be due to contamination from bacteria in the urine or bacteria that are non-specifically associated with the epithelium. In any case, blocking invasion blocks the ability of the bacteria to rapidly expand in numbers. This is due to the ability of the mannosides to block the IBC mechanism.\nThe efficacy of in vivo mannoside treatment was evaluated after dosing animals with mannoside either IP or PO 30 min prior to infecting with UTI89. At 6 hpi the bladders were removed and total bacterial CFUs were quantitated. […] Gentamicin efficiently kills extracellular UPEC but is unable to penetrate tissue and thus intracellular bacteria survive gentamicin treatment18. […] In bladders from untreated mice, 10^3 - 10^4 CFUs remained after gentamicin treatment.\nGentamicin protection assay. […] The bladders were then bisected twice and washed three times in 500 µl of PBS each. The wash fractions were pooled, lightly spun at 500 rpm for 5 min to pellet exfoliated bladder cells, serially diluted, and plated onto LB agar to obtain the luminal fraction. The bladders were treated with 100 µg of gentamicin/ml for 90 min at 37°C. After treatment, the bladders were washed twice with PBS to eliminate residual gentamicin, homogenized in 1 ml of PBS, serially diluted, and plated onto LB agar to enumberate the CFUs in the intracellular fraction."}, "FimH [6]": {"target": "T2, FimH (Escherichia coli, UniProt Q1R2J4)", "T2 construct": "endogenous in cells; host or cells: type 1 piliated UPEC bacteria", "assay": "cell-based", "design": "species or system UPEC"}, "PBC-1 [7]": {"system": "PBC-1", "assay": "Growth curve with TMP-SMZ (MIC)", "format": "cell-based, UPEC"}, "UTI89 [8]": {"system": "UTI89", "assay": "Bladder bacterial titer (CFU), mouse UTI model, UTI89", "format": "in vivo, mice", "settings": "for total bacterial CFUs: 6 hpi", "protocol": "(§1) After invasion, UPEC are able to rapidly replicate to form IBCs, thus dramatically expanding in numbers. After maturation of the IBC, bacteria are able to disperse from the biomass and spread to neighboring cells to expand the buildup in bacterial numbers via next generation IBC. The ability of mannosides to block IBC formation was evaluated based on LacZ staining of whole mount bladders, a protocol developed to enumerate IBCs. Whole bladder titers were also determined by quantifying colony forming units (CFUs) at 6 hours post-infection and later time points as test compounds were further developed.\nAnimal infections. Bacteria were grown under type 1 pili-inducing conditions (2x24 h at 37°C statically in LB). The bacteria were harvested and resuspended to an OD600 of 0.5 in PBS. Eight-week-old C3H/HeN (Harlan) female mice were anesthetized by inhalation of isoflurane and infected via transurethral catheterization with 50 µl of the bacterial suspension, resulting in 1-2 x 10^7 inoculum. At 6 hpi, mice were sacrificed by cervical dislocation under anesthesia and the bladders were immediately harvested and processed as described below. All animal studies using mice were approved by the Animal Studies Committee of Washington University (Animal Protocol Number 20100002).\nBladder tissue bacterial titer determination. Mannoside ZFH-2056 was administered either IP (5 mg/kg) or orally (100 mg/kg) 30 min prior to inoculation with UTI89. To enumerate the bacteria present, mice were sacrificed at 6 hpi and bladders were aseptically removed and homogenized in 1 ml PBS, serially diluted and plated onto LB agar plates. CFU was enumerated after 16 h of growth at 37 °C."}, "[9]": {"assay": "Urine pharmacokinetic analysis of mannoside (LC-MS)", "format": "in vivo, mice", "protocol": "Pharamacokinetic analysis. […] An equal volume of 10 µM internal standard (ZFH-2050) was added to the urine."}, "UTI89 biofilm [10]": {"system": "UTI89 biofilm", "assay": "Disruption of preformed biofilm", "format": "cell-based, UPEC", "settings": "for IC50: another 24h"}, "UTI89 [11]": {"system": "UTI89", "assay": "Bladder bacterial titer (CFU), mouse UTI model, UTI89", "format": "in vivo, mice", "settings": "for bacterial titers upon boosting: pretreatment plus 2 treatments every 8h"}, "PBC-1 [12]": {"system": "PBC-1", "assay": "Bladder bacterial titer (CFU), mouse UTI model, TMP-SMZ resistant strain", "format": "in vivo, mice", "protocol": "(§2) Mice were either untreated or IP treated with mannoside ZFH-2056 30 min prior to inoculation with bacteria. […] Not only do the bacteria escape the immune system in their intracellular niche, they are also able to escape exposure to effective antibiotics."}, "UTI89 [13]": {"system": "UTI89", "assay": "IBC enumeration by LacZ staining of whole bladders", "format": "in vivo, mice", "protocol": "as §1\nTo test the efficacy of the mannosides in vivo, UTI89 expressing type 1 pili were pre-incubated with mannosides, inoculated into mice and IBCs were quantitated at 6 hours post-infection (hpi).\nEnumeration of bladder IBCs. For bacterial pretreatment experiments, mannoside was added to the bacterial suspension and incubated for 20 min. For animal pretreatment experiments, mannoside ZFH-2056 was administered either IP (5 mg/kg) or orally (100 mg/kg) 30 min prior to inoculation with UTI89. To accurately count the number of IBCs, mice were sacrificed 6 hpi and bladders were aseptically removed, bisected, splayed on silicone plates and fixed in 2% paraformaldehyde (v/v). IBCs, readily discernable as punctate violet spots, were quantified by LacZ staining of whole bladders."}, "[14]": {"settings": "3 days of 54 µg/ml TMP and 270 µg/ml SMZ in drinking water", "protocol": "as §2\nAntibiotic treatment. […] Water was changed daily for 3 days prior to inoculation with UTI89."}}, "note": "“Also recorded” adds a separate entry of the source.", "data": [{"smiles": "CCCCO[C@H]1O[C@H](CO)[C@@H](O)[C@H](O)[C@@H]1O", "note": "[Butylαman, α-D-butylmannoside, reference compound]", "values": [{"measurement": "EC50", "setting": "FimH [1]", "value": 0.245, "unit": "µM"}, {"measurement": "Kd", "setting": "FimH [2]", "value": 0.151, "unit": "µM"}]}, {"smiles": "CNC(=O)c1cc(C(=O)NC)cc(-c2ccc(O[C@H]3O[C@H](CO)[C@@H](O)[C@H](O)[C@@H]3O)cc2)c1", "note": "[Compound 50, N1,N3-dimethyl-5-[4-[(2R,3S,4S,5S,6R)-3,4,5-trihydroxy-6-(hydroxymethyl)tetrahydropyran-2-yl]oxyphenyl]benzene-1,3-dicarboxamide]", "values": [{"measurement": "solubility", "setting": "[3]", "value": "much improved solubility"}, {"measurement": "IC50", "setting": "UTI89 biofilm [4]", "value": 0.74, "unit": "µM"}, {"measurement": "luminal bacteria", "setting": "UTI89 [5]", "value": "significantly reduced"}, {"measurement": "intracellular bacteria (CFUs after gentamicin)", "setting": "UTI89 [5]; listed as ZFH-2056", "value": "eliminated all CFUs; also recorded: significantly reduced"}, {"measurement": "EC50", "setting": "FimH [6]", "value": 0.37, "unit": "µM"}, {"measurement": "difference in cell potency vs. binding (drop in cell activity relative to binding)", "setting": "FimH [6]; HA titer vs FP EC50", "value": 4, "unit": "fold"}, {"measurement": "inhibition of FimH-dependent hemagglutination", "setting": "FimH [6]; in words", "value": "potent inhibitors"}, {"measurement": "EC90", "setting": "FimH [6]; read-out: HA 50% titer EC90", "value": 0.37, "unit": "µM"}, {"measurement": "effect on efficacy of TMP-SMZ killing", "setting": "PBC-1 [7]; 100 µM mannoside", "value": "not found to increase the efficacy of TMP-SMZ killing"}, {"measurement": "bladder titers", "setting": "UTI89 [8]; 5mg/kg 30 min prior, 10^7 UTI89, 6 hpi", "value": "significantly inhibited bacterial infection"}, {"measurement": "total bacterial CFUs", "setting": "UTI89 [8]; IP (5 mg/kg) 30 min prior to inoculation, listed as ZFH-2056, 5 mg/kg", "value": "significant drop in bacterial counts; also recorded: significant drop in bacterial load"}, {"measurement": "total bacterial CFUs", "setting": "UTI89 [8]; oral (100 mg/kg) 30 min prior to inoculation", "value": "significant drop in bacterial counts"}, {"measurement": "lower initial urine concentration versus IP", "setting": "[9]; 100 mg/kg PO", "value": 10, "unit": "fold"}, {"measurement": "higher urine levels versus IP", "setting": "[9]; 100 mg/kg PO, 8 hours post-dosing", "value": 10, "unit": "fold"}, {"measurement": "concentration in the urine", "setting": "[9]; IP 5 mg/kg and 10 mg/kg, 30 min after treatment", "value": "~5000", "unit": "µM"}, {"measurement": "time by which mostly gone (eliminated in the urine)", "setting": "[9]; IP dosing, post injection", "value": "6 to 8", "unit": "h"}, {"measurement": "drug cleared to the urine intact", "setting": "[9]; mouse, in vivo", "value": "> 95", "unit": "%"}, {"measurement": "concentration at 8 h", "setting": "[9]; mouse, urine, IP, eight hours after dosing, read-out: level in the urine", "value": "≤ 0.74", "unit": "µM"}, {"measurement": "biofilm structure by confocal microscopy", "setting": "UTI89 biofilm [10]; 0.3 µM, 24 h biofilm plus 16 h", "value": "lacked continuity"}, {"measurement": "IC50", "setting": "UTI89 biofilm [10]; mannoside added at 24h", "value": "~6", "unit": "µM"}, {"measurement": "IC50", "setting": "UTI89 biofilm [10]; mannoside added at 48h", "value": "~25", "unit": "µM"}, {"measurement": "bladder titers", "setting": "UTI89 [11]; 5mg/kg 30 min prior, 10^7 UTI89, 24 hpi", "value": "significantly reduced bacterial titers"}, {"measurement": "bladder titers", "setting": "UTI89 [11]; 50mg/kg 30 min prior, 10^7 UTI89, 6 hpi", "value": "significantly inhibited bacterial infection"}, {"measurement": "bladder titers", "setting": "UTI89 [11]; 50mg/kg 30 min prior, 10^7 UTI89, 24 hpi", "value": "significantly reduced bacterial titers"}, {"measurement": "2 week titers", "setting": "UTI89 [11]; 10^6 inoculum, single dose 5mg/kg 30 min prior", "value": "significant decrease in bacterial load"}, {"measurement": "bacterial titers", "setting": "UTI89 [11]; 10^6 inoculum, treated vs untreated mice", "value": "significant decrease"}, {"measurement": "bacterial titers, post-infection treatment", "setting": "UTI89 [11]; 24hpi, 5mg/kg IP 1h post-infection plus 2 treatments every 8h", "value": "no efficacy observed"}, {"measurement": "bacterial titers upon boosting", "setting": "UTI89 [11]; 24hpi, 10^6 inoculum", "value": "not observed"}, {"measurement": "bacterial titers upon boosting", "setting": "UTI89 [11]; 24hpi, 10^7 inoculum", "value": "further efficacy"}, {"measurement": "bacterial titers", "setting": "UTI89 [11]; 24hpi, single IP pretreatment 5mg/kg, 10^7 and 10^6 inoculum", "value": "significant drop in bacterial titers"}, {"measurement": "EC50", "setting": "FimH [1]", "value": 0.087, "unit": "µM"}, {"measurement": "efficacy against TMP-SMZ resistant strains", "setting": "PBC-1 [12]; Fig. 29", "value": "increased efficacy"}, {"measurement": "bacterial load in the bladder", "setting": "PBC-1 [12]; IP 30 min prior to inoculation, 6 hpi", "value": "significant drop in bacterial load"}, {"measurement": "IBCs", "setting": "UTI89 [13]; 6 hpi, UTI89 pre-incubated with 10 µM", "value": "most significant reduction in IBCs"}, {"measurement": "IBC counts in the bladder", "setting": "UTI89 [13]; 10^6 inoculum, 6h", "value": "no IBCs observed"}, {"measurement": "IBC quantification", "setting": "UTI89 [13]; IP (5 mg/kg) 30 min prior to inoculation, 6 hpi", "value": "significant reduction in IBCs"}, {"measurement": "IBC quantification", "setting": "UTI89 [13]; oral (100 mg/kg) 30 min prior to inoculation, 6 hpi", "value": "significant reduction in IBCs"}]}, {"smiles": "COc1cc(Cc2cnc(N)nc2N)cc(OC)c1OC", "note": "[TMP, Trimethoprim]", "values": [{"measurement": "MIC", "setting": "PBC-1 [7]", "value": 256, "unit": "µg/mL"}, {"measurement": "concentration in urine", "setting": "[14]", "value": "9950 ± 4360", "unit": "µg/mL"}]}]}
